From patent publication US8758816B2, “Compositions comprising azelastine and methods of use thereof” (priority 2004, dated 2014)
Counter-ions that a name gives are not always drawn.

Test system: patients with seasonal allergic rhinitis (SAR)
Assay: MP 428 study: individual symptom severity scores (runny nose, itchy nose, sneezing, congestion; 0-3 scale)
Format: in vivo, human
Conditions: Intent-to-Treat Population
Experimental: A two-week, randomized, double-blind study, which evaluated the effects of the co-administration of ASTELIN® (azelastine hydrochloride (HCl)) and FLONASE® (fluticasone propionate) compared to either product alone in patients with seasonal allergic rhinitis (SAR) was conducted during the 2006 Texas mountain cedar season. After a 5-day placebo lead-in period, 151 patients with moderate-to-severe allergic rhinitis symptoms were randomized to either: (1) (49 total patients) ASTELIN® (azelastine hydrochloride (HCl)) plus placebo saline nasal spray 2 sprays per nostril, 15 minutes apart, twice daily (AM & PM); (2) (50 total patients) FLONASE® (fluticasone propionate) plus placebo saline nasal spray, 2 sprays per nostril, 15 minutes apart, once daily (AM) and two sessions of placebo saline nasal spray, 2 sprays per nostril, 15 minutes apart (PM); or (3) (52 total patients) the co-administration of ASTELIN® (azelastine hydrochloride (HCl)) 2 sprays per nostril plus FLONASE® (fluticasone propionate) 2 sprays per nostril (AM), 15 minutes apart, and ASTELIN® (azelastine hydrochloride (HCl)) 2 sprays per nostril plus placebo saline nasal spray, 15 minutes apart, (PM) for a 2-week double-blind treatment period.
The primary efficacy variable was the change from baseline in the Total Nasal Symptom Score (TNSS), which comprised sneezing, itchy nose, runny nose, and nasal congestion (individual symptoms scores were assigned a value between 0 and 3, where 0=no symptoms and 3=severe symptoms). This study was not statistically designed to assess the differences between ASTELIN® and FLONASE®.
The results of the clinical trial are summarized and presented in Appendix A hereinbelow and in FIGS. 1-6. […] FIGS. 2-5 show the mean improvement in severity score (0-3 scale) from baseline for the symptoms of runny nose, itchy nose, sneezing and congestion, respectively.

For CN1CCCC(n2nc(Cc3ccc(Cl)cc3)c3ccccc3c2=O)CC1 (racemic) [Azelastine, (±)-1-(2H)-phthalazinone, 4-[(4-chlorophenyl)methyl]-2-(hexahydro-1-methyl-1H-azepin-4-yl)-, mono-hydrochloride], the “Percent Change from Baseline in AM and PM Combined Nasal Symptom Score: Congestion, LS Mean” value (“Percent Change … Congestion, LS Mean” for short) (Day 5) was −18.24%, the “Percent Change from Baseline in AM and PM Combined Nasal Symptom Score: Congestion, Mean” value (shortened to “Percent Change from Baseline … Congestion, Mean”) (Day 5) was −18.92% and the “Percent Change from Baseline in AM and PM Combined Nasal Symptom Score: Congestion, Median” value (“Percent Change … Congestion, Median” for short) (Day 5) was −16.67%. The “Percent Change from Baseline in AM and PM Combined Nasal Symptom Score: Itchy Nose, LS Mean” value (from here on “Percent Change … Itchy Nose, LS Mean”) (Day 5) was −24.75%, the “Percent Change from Baseline in AM and PM Combined Nasal Symptom Score: Itchy Nose, Mean” value (shortened to “Percent Change from Baseline … Itchy Nose, Mean”) (Day 5) was −24.24% and the “Percent Change from Baseline in AM and PM Combined Nasal Symptom Score: Itchy Nose, Median” value (“Percent Change … Itchy Nose, Median” for short) (Day 5) was −15.49%. The “Percent Change from Baseline in AM and PM Combined Nasal Symptom Score: Runny Nose, LS Mean” value (from here on “Percent Change … Runny Nose, LS Mean”) (Day 5) was −18.46%, the “Percent Change from Baseline in AM and PM Combined Nasal Symptom Score: Runny Nose, Mean” value (shortened to “Percent Change from Baseline … Runny Nose, Mean”) (Day 5) was −18.42% and the “Percent Change from Baseline in AM and PM Combined Nasal Symptom Score: Runny Nose, Median” value (“Percent Change … Runny Nose, Median” for short) (Day 5) was −11.76%. The “Percent Change from Baseline in AM and PM Combined Nasal Symptom Score: Sneezing, LS Mean” value (from here on “Percent Change from Baseline … Sneezing, LS Mean”) (Day 5) was −33.21%, the “Percent Change from Baseline in AM and PM Combined Nasal Symptom Score: Sneezing, Mean” value (“Percent Change from Baseline … Sneezing, Mean” for short) (Day 5) was −32.23% and the “Percent Change from Baseline in AM and PM Combined Nasal Symptom Score: Sneezing, Median” value (from here on “Percent Change from Baseline … Sneezing, Median”) (Day 5) was −25.23%. For the same compound, the “Change from Baseline in AM and PM Combined Nasal Symptom Score: Congestion, LS Mean” value (Day 6) was −1.04, the “Change from Baseline in AM and PM Combined Nasal Symptom Score: Congestion, Mean” value (Day 6) was −1.09 and the “Change from Baseline in AM and PM Combined Nasal Symptom Score: Congestion, Median” value (Day 6) was −0.92. The “Change from Baseline in AM and PM Combined Nasal Symptom Score: Itchy Nose, LS Mean” value (Day 6) was −1.14, the “Change from Baseline in AM and PM Combined Nasal Symptom Score: Itchy Nose, Mean” value (Day 6) was −1.14 and the “Change from Baseline in AM and PM Combined Nasal Symptom Score: Itchy Nose, Median” value (Day 6) was −0.73. For the same compound, the “Change from Baseline in AM and PM Combined Nasal Symptom Score: Runny Nose, LS Mean” value (Day 6) was −0.94, the “Change from Baseline in AM and PM Combined Nasal Symptom Score: Runny Nose, Mean” value (Day 6) was −0.95 and the “Change from Baseline in AM and PM Combined Nasal Symptom Score: Runny Nose, Median” value (Day 6) was −1.00. For the same compound, the “Change from Baseline in AM and PM Combined Nasal Symptom Score: Sneezing, LS Mean” value (Day 6) was −1.27, the “Change from Baseline in AM and PM Combined Nasal Symptom Score: Sneezing, Mean” value (Day 6) was −1.26 and the “Change from Baseline in AM and PM Combined Nasal Symptom Score: Sneezing, Median” value (Day 6) was −1.30. For the same compound, the “Percent Change … Congestion, LS Mean” value (Day 6) was −18.26%, the “Percent Change from Baseline … Congestion, Mean” value (Day 6) was −18.97% and the “Percent Change … Congestion, Median” value (Day 6) was −18.37%. For the same compound, the “Percent Change … Itchy Nose, LS Mean” value (Day 6) was −24.98%, the “Percent Change from Baseline … Itchy Nose, Mean” value (Day 6) was −25.00% and the “Percent Change … Itchy Nose, Median” value (Day 6) was −15.49%. For the same compound, the “Percent Change … Runny Nose, LS Mean” value (Day 6) was −18.89%, the “Percent Change from Baseline … Runny Nose, Mean” value (Day 6) was −18.89% and the “Percent Change … Runny Nose, Median” value (Day 6) was −21.74%. For the same compound, the “Percent Change from Baseline … Sneezing, LS Mean” value (Day 6) was −32.36%, the “Percent Change from Baseline … Sneezing, Mean” value (Day 6) was −31.52% and the “Percent Change from Baseline … Sneezing, Median” value (Day 6) was −28.00%. The “Change from Baseline in AM and PM Combined Nasal Symptom Score: Congestion, LS Mean” value (Day 7) was −1.17, the “Change from Baseline in AM and PM Combined Nasal Symptom Score: Congestion, Mean” value (Day 7) was −1.23 and the “Change from Baseline in AM and PM Combined Nasal Symptom Score: Congestion, Median” value (Day 7) was −1.00. For the same compound, the “Change from Baseline in AM and PM Combined Nasal Symptom Score: Itchy Nose, LS Mean” value (Day 7) was −1.18, the “Change from Baseline in AM and PM Combined Nasal Symptom Score: Itchy Nose, Mean” value (Day 7) was −1.17 and the “Change from Baseline in AM and PM Combined Nasal Symptom Score: Itchy Nose, Median” value (Day 7) was −0.90. The “Change from Baseline in AM and PM Combined Nasal Symptom Score: Runny Nose, LS Mean” value (Day 7) was −0.93, the “Change from Baseline in AM and PM Combined Nasal Symptom Score: Runny Nose, Mean” value (Day 7) was −0.95 and the “Change from Baseline in AM and PM Combined Nasal Symptom Score: Runny Nose, Median” value (Day 7) was −1.07. The “Change from Baseline in AM and PM Combined Nasal Symptom Score: Sneezing, LS Mean” value (Day 7) was −1.76, the “Change from Baseline in AM and PM Combined Nasal Symptom Score: Sneezing, Mean” value (Day 7) was −1.75 and the “Change from Baseline in AM and PM Combined Nasal Symptom Score: Sneezing, Median” value (Day 7) was −1.55. The “Percent Change … Congestion, LS Mean” value (Day 7) was −21.14%, the “Percent Change from Baseline … Congestion, Mean” value (Day 7) was −22.02% and the “Percent Change … Congestion, Median” value (Day 7) was −18.37%. For the same compound, the “Percent Change … Itchy Nose, LS Mean” value (Day 7) was −26.35%, the “Percent Change from Baseline … Itchy Nose, Mean” value (Day 7) was −25.83% and the “Percent Change … Itchy Nose, Median” value (Day 7) was −21.57%. The “Percent Change … Runny Nose, LS Mean” value (Day 7) was −18.66%, the “Percent Change from Baseline … Runny Nose, Mean” value (Day 7) was −18.92% and the “Percent Change … Runny Nose, Median” value (Day 7) was −25.00%. The “Percent Change from Baseline … Sneezing, LS Mean” value (Day 7) was −40.66%, the “Percent Change from Baseline … Sneezing, Mean” value (Day 7) was −39.73% and the “Percent Change from Baseline … Sneezing, Median” value (Day 7) was −38.78%. The “Change from Baseline in AM and PM Combined Nasal Symptom Score: Congestion, LS Mean” value (Day 8) was −1.24, the “Change from Baseline in AM and PM Combined Nasal Symptom Score: Congestion, Mean” value (Day 8) was −1.27 and the “Change from Baseline in AM and PM Combined Nasal Symptom Score: Congestion, Median” value (Day 8) was −1.00. For the same compound, the “Change from Baseline in AM and PM Combined Nasal Symptom Score: Itchy Nose, LS Mean” value (Day 8) was −1.15, the “Change from Baseline in AM and PM Combined Nasal Symptom Score: Itchy Nose, Mean” value (Day 8) was −1.12 and the “Change from Baseline in AM and PM Combined Nasal Symptom Score: Itchy Nose, Median” value (Day 8) was −0.83. The “Change from Baseline in AM and PM Combined Nasal Symptom Score: Runny Nose, LS Mean” value (Day 8) was −1.23, the “Change from Baseline in AM and PM Combined Nasal Symptom Score: Runny Nose, Mean” value (Day 8) was −1.25 and the “Change from Baseline in AM and PM Combined Nasal Symptom Score: Runny Nose, Median” value (Day 8) was −1.00. The “Change from Baseline in AM and PM Combined Nasal Symptom Score: Sneezing, LS Mean” value (Day 8) was −1.74, the “Change from Baseline in AM and PM Combined Nasal Symptom Score: Sneezing, Mean” value (Day 8) was −1.73 and the “Change from Baseline in AM and PM Combined Nasal Symptom Score: Sneezing, Median” value (Day 8) was −1.55. The “Percent Change … Congestion, LS Mean” value (Day 8) was −22.22%, the “Percent Change from Baseline … Congestion, Mean” value (Day 8) was −22.68% and the “Percent Change … Congestion, Median” value (Day 8) was −18.64%. For the same compound, the “Percent Change … Itchy Nose, LS Mean” value (Day 8) was −25.37%, the “Percent Change from Baseline … Itchy Nose, Mean” value (Day 8) was −24.80% and the “Percent Change … Itchy Nose, Median” value (Day 8) was −18.92%. For the same compound, the “Percent Change … Runny Nose, LS Mean” value (Day 8) was −24.85%, the “Percent Change from Baseline … Runny Nose, Mean” value (Day 8) was −24.97% and the “Percent Change … Runny Nose, Median” value (Day 8) was −25.00%. The “Percent Change from Baseline … Sneezing, LS Mean” value (Day 8) was −38.54%, the “Percent Change from Baseline … Sneezing, Mean” value (Day 8) was −37.78% and the “Percent Change from Baseline … Sneezing, Median” value (Day 8) was −33.33%.
